Tested on: chondrogenic differentiation of hMSCs
Experiment: qPCR of day 3 chondrogenic micromass pellets (Example 1)
Type: cell-based, human
Details: day 3; 10 ng/ml TGF-β1 with 10 μg/ml heparin
Experimental: Chondrogenic differentiation was carried out using a modified micromass culture system as described by Zhang et al. (32). Briefly, passage 4 hMSCs were harvested and resuspended in chemically defined chondrogenic media (PT-3003, Lonza) at 2×10^7 cells/ml. Droplets of 12.5 μl were then seeded into the middle of each well in a 24-well plate and left to adhere at 37° C. for 2 h, after which, 500 μl of chondrogenic media supplemented with either 10 ng/ml of TGF-β1 (100-21C, PeproTech) alone (Media) or TGF-β1 with 10 μg/ml of heparin (Sigma-Aldrich) (Media+Hep) was added to each well. The cell droplets coalesced into spherical masses after 24 h and the micromasses harvested on day 3. Human MSCs were cultured in 6-well plates in basal media for 24 h at a density of 10,000 cells/cm^2. TGF-β1 treatments were then prepared at either 1 ng/ml or 5 ng/ml alone or in the presence of either 10 μg/ml or 40 μg/ml of full length heparin, or 1 ng/ml of TGF-β1 with 10 μg/ml size-fractionated or selectively desulfated heparin, HS^PM, HS16+ or HS16−, and incubated at room temperature for 10 min before being added to the cells. Latent TGF-β1 (LTGF-β1) treatments were similarly prepared at 3.3 ng/ml alone or with 10 μg/ml of the various GAGs described above. For inhibitor studies, the cells were pre-treated for 30 min with 10 μM SB431542 (Sigma-Aldrich) or DMSO before treatment with TGF-β1. The cells were then subjected to the various TGF-β1 treatments for 1, 6 or 24 h and lysed in 2× Laemmli buffer, before being resolved on a 4-12% SDS-PAGE gel. Samples were then immunoblotted with antibodies against SMAD2/3 (#3102, Cell Signaling), phosphorylated SMAD2 (pSMAD2, #3108, Cell Signaling), phosphorylated SMAD3 (pSMAD3, #9520, Cell Signaling) and actin (MAB1501R, Millipore). Densitometry was carried out using Quantity One software (version 4.6.6, Bio-Rad). Total RNA was isolated from chondrogenic micromass pellets using TRIZOL reagent (Invitrogen, Life Technologies) according to the manufacturer's protocol. Reverse transcription was carried out on 1 μg RNA using the SuperScript® VILO™ cDNA Synthesis Kit (Invitrogen, Life Technologies) following the manufacturer's instructions, with the incubation at 42° C. being carried out for 2 h instead of 1 h. Each qPCR contained 40 ng cDNA, 1 μl TaqMan® primer-probe mix per gene, and 10 μl Taqman® Fast Universal PCR Master Mix (Applied Biosystems, Life Technologies) in a final volume of 20 μl. Thermal cycling conditions were 95° C. for 20 s, followed by 45 cycles of 95° C. for 3 s and 60° C. for 30 s. Each qPCR was run in duplicate and gene expression was normalized to HPRT1 expression to obtain the ΔCt value. […] Relative expression levels for each primer set were expressed as fold changes by the 2^−ΔΔCt method (36). […]

heparin was tested. Which “COMP mRNA transcripts relative to Media (TGF-β1 alone)” value did it give?
The value was ~5 fold.

What about the “SOX9 mRNA transcripts relative to Media (TGF-β1 alone)” value of the same substance?
Its value is ~5 fold.

— patent US10596296B2, “Heparan sulphates” (Agency for Science, Technology and Research, priority 2014, dated 2020)
